Experimental data reported in patent publication US20050209157A1, “Short bioactive peptides and methods for their use” (priority 2001, published 2005).
Values after ≈ are worked out from the molar mass of the structure shown. No end group written: not given here.

Legend:
[1] = tested on: Candida albicans ATCC 10231; test: Antimicrobial assay I, modified protocol (tryptic soy broth), MFC; conditions: minimum fungicidal concentration, Table 4
[2] = tested on: Pseudomonas aeruginosa ATCC 27853; test: Antimicrobial assay I, modified protocol (tryptic soy broth), MBC; conditions: minimum bactericidal concentration, Table 4
[3] = tested on: Escherichia coli ATCC 25922; test: as above; conditions: minimum bactericidal concentration, Table 4
[4] = tested on: Stapholococcus aureus ATCC 25923; test: as above; conditions: minimum bactericidal concentration, Table 4
Experimental: The preparation of all media, stock solutions, and dilutions took place in a laminar flow hood to prevent contamination. Bacterial cells were freshly grown on antibiotic medium 2 agar slants (pH 7.0 at 25° C.). Bacteria were suspended and diluted in antibiotic medium 3 to about 10^4 cfu/ml and used as the inoculum. Sample solutions (100 μl/well) were added to plates according to the plate layout. Inoculum (100 μl/well) was added to achieve a final concentration of 5×10^3 cfu/ml. Negative controls received 100 μl saline and 100 μl growth medium. Positive controls received 100 μl saline and 100 μl inoculum. Bacterial plates were incubated at 37° C. for 24 hours.
However, the data for Table 4 were obtained with a modified protocol wherein the medium was tryptic soy broth, inocolum strength was approximately 10^4 CFU per ml, and values determined were minimum bactericidal concentrations (MBC) or minimum fungicidal concentrations (MFC).
MBC or MFC values are in μg/mL. E. coli is Escherichia coli ATCC accession number 25922; P. aerug is Pseudomonas aeruginosa ATCC accession number 27853, S. aur. is Stapholococcus aureus ATCC accession number 25923; Candida is Candida albicans ATCC accession number 10231.

CC(C)C[C@H](NC(=O)[C@H](CCCCN)NC(=O)[C@H](CCCCN)NC(=O)[C@H](Cc1c[nH]c2ccccc12)NC(=O)[C@@H](N)CCCCN)C(=O)N[C@@H](C)C(=O)N[C@@H](CCCCN)C(=O)N[C@@H](CCCCN)C(=O)N[C@@H](Cc1c[nH]c2ccccc12)C(N)=O [compound 161]
MFC Candida A.10231 [1]: 25 µg/mL (≈ 20.6 µM)
MBC P. aerug A.27853 [2]: >250 µg/mL
MBC E. coli A.25922 [3]: 150 µg/mL (≈ 124 µM)
MBC S. aur A.25923 [4]: >250 µg/mL

FAKLLAKLAKKIL-NH2 [compound 125]
MFC Candida A.10231 [1]: 40 µg/mL
MBC P. aerug A.27853 [2]: 40 µg/mL
MBC E. coli A.25922 [3]: 40 µg/mL
MBC S. aur A.25923 [4]: INACT

FAFGKGIGKIGKKGL-NH2 [compound 138]
MFC Candida A.10231 [1]: INACT
MBC P. aerug A.27853 [2]: INACT
MBC E. coli A.25922 [3]: INACT
MBC S. aur A.25923 [4]: INACT

FAKLFAKAFKKAL-NH2 [compound 117]
MFC Candida A.10231 [1]: INACT
MBC P. aerug A.27853 [2]: INACT
MBC E. coli A.25922 [3]: INACT
MBC S. aur A.25923 [4]: INACT

CC(C)C[C@H](NC(=O)[C@H](CCCCN)NC(=O)[C@H](CC(C)C)NC(=O)[C@H](Cc1c[nH]c2ccccc12)NC(=O)[C@H](CCCCN)NC(=O)[C@H](CCCCN)NC(=O)[C@H](C)NC(=O)[C@H](Cc1c[nH]c2ccccc12)NC(=O)[C@H](CCCCN)NC(=O)[C@H](CCCCN)NC(=O)[C@H](Cc1c[nH]c2ccccc12)NC(=O)[C@H](CC(C)C)NC(=O)[C@@H](N)CCCCN)C(=O)N[C@@H](Cc1c[nH]c2ccccc12)C(=O)N[C@@H](CCCCN)C(=O)N[C@@H](C)C(=O)N[C@@H](Cc1c[nH]c2ccccc12)C(N)=O [compound 163]
MFC Candida A.10231 [1]: 25 µg/mL (≈ 10.7 µM)
MBC P. aerug A.27853 [2]: 50 µg/mL (≈ 21.5 µM)
MBC E. coli A.25922 [3]: 25 µg/mL (≈ 10.7 µM)
MBC S. aur A.25923 [4]: 25 µg/mL (≈ 10.7 µM)

CC(C)C[C@H](NC(=O)[C@H](CC(C)C)NC(=O)[C@H](CCCCN)NC(=O)[C@H](CC(C)C)NC(=O)[C@H](CC(C)C)NC(=O)[C@H](CCCCN)NC(=O)[C@H](CCCCN)NC(=O)[C@H](Cc1ccc(O)cc1)NC(=O)[C@H](CC(C)C)NC(=O)[C@H](CCCCN)NC(=O)[C@H](CC(C)C)NC(=O)[C@H](CC(C)C)NC(=O)[C@H](CC(C)C)NC(=O)[C@H](CCCCN)NC(=O)[C@H](CC(C)C)NC(=O)[C@H](CC(C)C)NC(=O)[C@@H](N)CCCCN)C(=O)O [compound 156]
MFC Candida A.10231 [1]: >250 µg/mL
MBC P. aerug A.27853 [2]: >250 µg/mL
MBC E. coli A.25922 [3]: 100 µg/mL (≈ 48 µM)
MBC S. aur A.25923 [4]: >250 µg/mL

FAKLFAKLAKKFAL-NH2 [compound 121]
MFC Candida A.10231 [1]: 50 µg/mL
MBC P. aerug A.27853 [2]: INACT
MBC E. coli A.25922 [3]: INACT
MBC S. aur A.25923 [4]: INACT

FAKLA-NH2 [compound 128]
MFC Candida A.10231 [1]: INACT
MBC P. aerug A.27853 [2]: INACT
MBC E. coli A.25922 [3]: INACT
MBC S. aur A.25923 [4]: INACT

FAKIIAKIAKIAKKIL-NH2 [compound 139]
MFC Candida A.10231 [1]: INACT
MBC P. aerug A.27853 [2]: INACT
MBC E. coli A.25922 [3]: INACT
MBC S. aur A.25923 [4]: INACT

KWKLF-NH2 [compound 131]
MFC Candida A.10231 [1]: INACT
MBC P. aerug A.27853 [2]: INACT
MBC E. coli A.25922 [3]: INACT
MBC S. aur A.25923 [4]: INACT

CC(C)C[C@H](NC(=O)[C@H](CCCCN)NC(=O)[C@H](C)NC(=O)[C@H](CC(C)C)NC(=O)[C@H](CC(C)C)NC(=O)[C@H](CCCCN)NC(=O)[C@H](C)NC(=O)[C@@H](N)Cc1ccccc1)C(=O)N[C@@H](C)C(=O)N[C@@H](CCCCN)C(=O)N[C@@H](C)C(=O)N[C@@H](CCCCN)C(=O)NCC(N)=O [compound 96]
MFC Candida A.10231 [1]: >50 µg/mL
MBC P. aerug A.27853 [2]: >50 µg/mL
MBC E. coli A.25922 [3]: >50 µg/mL
MBC S. aur A.25923 [4]: >50 µg/mL

CC(C)C[C@H](NC(=O)[C@H](CC(C)C)NC(=O)[C@H](CCCCN)NC(=O)[C@H](CCCCN)NC(=O)[C@H](C)NC(=O)[C@H](CC(C)C)NC(=O)[C@H](CCCCN)NC(=O)[C@H](C)NC(=O)[C@@H](N)Cc1ccccc1)C(N)=O [compound 60]
MFC Candida A.10231 [1]: >50 µg/mL
MBC P. aerug A.27853 [2]: >50 µg/mL
MBC E. coli A.25922 [3]: >50 µg/mL
MBC S. aur A.25923 [4]: >50 µg/mL

CC(C)C[C@H](NC(=O)[C@H](CCCCN)NC(=O)[C@H](C)NC(=O)[C@H](CC(C)C)NC(=O)[C@H](CC(C)C)NC(=O)[C@H](CCCCN)NC(=O)[C@H](C)NC(=O)[C@@H](N)Cc1ccccc1)C(=O)N[C@@H](C)C(=O)N[C@@H](CCCCN)C(=O)N[C@@H](CCCCN)C(N)=O [compound 151]
MFC Candida A.10231 [1]: 100 µg/mL (≈ 81.3 µM)
MBC P. aerug A.27853 [2]: >250 µg/mL
MBC E. coli A.25922 [3]: >250 µg/mL
MBC S. aur A.25923 [4]: >250 µg/mL

CC(C)C[C@H](NC(=O)[C@H](C)NC(=O)[C@H](CCCCN)NC(=O)[C@H](CCCCN)NC(=O)[C@H](C)NC(=O)[C@H](CC(C)C)NC(=O)[C@H](CCCCN)NC(=O)[C@H](C)NC(=O)[C@H](CC(C)C)NC(=O)[C@H](CC(C)C)NC(=O)[C@H](CCCCN)NC(=O)[C@H](C)NC(=O)[C@@H](N)Cc1ccc(O)cc1)C(N)=O [compound 155]
MFC Candida A.10231 [1]: >250 µg/mL
MBC P. aerug A.27853 [2]: >250 µg/mL
MBC E. coli A.25922 [3]: >250 µg/mL
MBC S. aur A.25923 [4]: >250 µg/mL

CC(C)C[C@H](NC(=O)CNC(=O)[C@H](CCCCN)NC(=O)[C@H](CCCCN)NC(=O)[C@H](C)NC(=O)[C@H](CC(C)C)NC(=O)[C@H](CCCCN)NC(=O)[C@H](C)NC(=O)[C@H](CC(C)C)NC(=O)[C@H](CC(C)C)NC(=O)[C@H](CCCCN)NC(=O)[C@H](C)NC(=O)[C@@H](N)Cc1ccccc1)C(N)=O [compound 152]
MFC Candida A.10231 [1]: 50 µg/mL (≈ 35.7 µM)
MBC P. aerug A.27853 [2]: 150 µg/mL (≈ 107 µM)
MBC E. coli A.25922 [3]: 150 µg/mL (≈ 107 µM)
MBC S. aur A.25923 [4]: >250 µg/mL

CC(C)C[C@H](NC(=O)[C@H](C)NC(=O)[C@H](CCCCN)NC(=O)[C@H](C)NC(=O)[C@H](CC(C)C)NC(=O)[C@H](CCCCN)NC(=O)[C@H](C)NC(=O)[C@H](CC(C)C)NC(=O)[C@H](CCCCN)NC(=O)[C@H](C)NC(=O)[C@H](CC(C)C)NC(=O)[C@H](CCCCN)NC(=O)[C@H](CCCCN)NC(=O)[C@H](C)NC(=O)[C@H](CC(C)C)NC(=O)[C@@H](N)CCCCN)C(=O)O [compound 160]
MFC Candida A.10231 [1]: >250 µg/mL
MBC P. aerug A.27853 [2]: >250 µg/mL
MBC E. coli A.25922 [3]: >250 µg/mL
MBC S. aur A.25923 [4]: >250 µg/mL

FAFGKGIGKVGKKLL-NH2 [compound 133]
MFC Candida A.10231 [1]: INACT
MBC P. aerug A.27853 [2]: INACT
MBC E. coli A.25922 [3]: INACT
MBC S. aur A.25923 [4]: INACT

CC(C)C[C@H](NC(=O)[C@H](CCCCN)NC(=O)[C@H](C)NC(=O)[C@H](CCCCN)NC(=O)[C@H](C)NC(=O)[C@H](CC(C)C)NC(=O)[C@H](CCCCN)NC(=O)[C@H](C)NC(=O)[C@H](CC(C)C)NC(=O)[C@H](CC(C)C)NC(=O)[C@H](CCCCN)NC(=O)[C@H](C)NC(=O)[C@@H](N)Cc1ccccc1)C(N)=O [compound 65]
MFC Candida A.10231 [1]: >50 µg/mL
MBC P. aerug A.27853 [2]: >50 µg/mL
MBC E. coli A.25922 [3]: >55 µg/mL
MBC S. aur A.25923 [4]: >55 µg/mL

CC(C)C[C@H](NC(=O)[C@H](CC(C)C)NC(=O)[C@H](CCCCN)NC(=O)[C@H](C)NC(=O)[C@H](CC(C)C)NC(=O)[C@H](C)NC(=O)[C@H](CCCCN)NC(=O)[C@H](CCCCN)NC(=O)[C@H](C)NC(=O)[C@H](CC(C)C)NC(=O)[C@H](CCCCN)NC(=O)[C@H](C)NC(=O)[C@@H](N)Cc1ccccc1)C(N)=O [compound 148]
MFC Candida A.10231 [1]: 100 µg/mL (≈ 70.7 µM)
MBC P. aerug A.27853 [2]: >250 µg/mL
MBC E. coli A.25922 [3]: 150 µg/mL (≈ 106 µM)
MBC S. aur A.25923 [4]: >250 µg/mL
